Data set [1] relates to Mus musculus. The data set can be described thus: Antidyslipidemic activity in po dosed mouse assessed as reduction of plasma free fatty acids. Format: functional.
For data set [2], the target named is Hydroxycarboxylic acid receptor 3 (Homo sapiens) (UniProt P49019). Put plainly: Agonist activity at GPR109b. Format: functional.
Data set [3] is described as follows: Antidyslipidemic activity in human adipocytes assessed as inhibition of isoproteranol-induced production of free fatty acids. The conditions noted are these: Adipocyte.
The target in data set [4] is Hydroxycarboxylic acid receptor 3 (Homo sapiens) (UniProt P49019). Put plainly: Agonist activity at GPR109b at 5 to 10 uM. It counts as functional.
The species named for data set [5] is Mus musculus. Put plainly: Inhibition of niacin-induced vasodilation in mouse. It counts as functional, organism-based.
The species entered for data set [6] is Mus musculus. Put plainly: Inhibition of prostaglandin-induced vasodilation in mouse. Format: functional, organism-based.
For data set [7], the system named is Mus musculus. Put plainly: Induction of vasodilation in mouse assessed as laser doppler changes in ears at 100 mg/kg. Format: functional, organism-based. Also noted: dose 100 mg/kg.
Data set [8] is described as follows: Plasma clearance in mouse at 3 mg/kg, iv and 10 mg/kg, po. Format: ADME, organism-based.
Data set [9] in a line: Cmax in rat at 3 mg/kg, iv and 10 mg/kg, po. It counts as ADME, organism-based. Conditions: in vivo.
The nature of data set [10]: Half life in rat at 3 mg/kg, iv and 10 mg/kg, po. It counts as ADME, organism-based. The conditions noted are these: in vivo.
A short description of data set [11]: Cmax in dog at 3 mg/kg, iv and 10 mg/kg, po. It counts as ADME, organism-based, Canis lupus familiaris. The conditions noted are these: in vivo.
Data set [12] is described as follows: Plasma clearance in monkey at 3 mg/kg, iv and 10 mg/kg, po. Format: ADME, organism-based, Macaca mulatta. Conditions: rhesus monkey.
Data set [13] in a line: Plasma clearance in dog at 3 mg/kg, iv and 10 mg/kg, po. Format: ADME, organism-based, Canis lupus familiaris.
The nature of data set [14]: Oral bioavailability in dog at 10 mg/kg. Format: ADME, organism-based, Canis lupus familiaris. The conditions noted are these: in vivo.
The nature of data set [15]: Oral bioavailability in monkey at 10 mg/kg. It counts as ADME, organism-based, Macaca mulatta. Conditions: rhesus monkey, in vivo.
Data set [16] can be described thus: Volume of distribution at steady state in mouse at 3 mg/kg, iv and 10 mg/kg, po. Format: ADME, organism-based. The conditions noted are these: in vivo, read-out: Vdss.
A short description of data set [17]: Oral bioavailability in rat at 10 mg/kg. The conditions noted are these: in vivo. Format: ADME, organism-based.
Data set [18] in a line: Oral bioavailability in mouse at 10 mg/kg. Conditions: in vivo. Format: ADME, organism-based.
Data set [19] can be described thus: Half life in dog at 3 mg/kg, iv and 10 mg/kg, po. The conditions noted are these: in vivo. Format: ADME, organism-based, Canis lupus familiaris.
Data set [20] can be described thus: Plasma clearance in rat at 3 mg/kg, iv and 10 mg/kg, po. Format: ADME, organism-based.
A short description of data set [21]: Half life in mouse at 3 mg/kg, iv and 10 mg/kg, po. It counts as ADME, organism-based. The conditions noted are these: in vivo.
Data set [22] in a line: Volume of distribution at steady state in dog at 3 mg/kg, iv and 10 mg/kg, po. It counts as ADME, organism-based, Canis lupus familiaris. The conditions noted are these: in vivo, read-out: Vdss.
The nature of data set [23]: Cmax in monkey at 3 mg/kg, iv and 10 mg/kg, po. Format: ADME, organism-based, Macaca mulatta. Conditions: rhesus monkey, in vivo.
Data set [24] in a line: Volume of distribution at steady state in monkey at 3 mg/kg, iv and 10 mg/kg, po. It counts as ADME, organism-based, Macaca mulatta. Conditions: rhesus monkey, in vivo, read-out: Vdss.
Data set [25] in a line: Volume of distribution at steady state in rat at 3 mg/kg, iv and 10 mg/kg, po. Format: ADME, organism-based. The conditions noted are these: in vivo, read-out: Vdss.
Data set [26] in a line: Cmax in mouse at 3 mg/kg, iv and 10 mg/kg, po. It counts as ADME, organism-based. Conditions: in vivo.
Data set [27] in a line: Half life in monkey at 3 mg/kg, iv and 10 mg/kg, po. It counts as ADME, organism-based, Macaca mulatta. Conditions: rhesus monkey, in vivo.

The structures appear in SMILES notation. Activity calls are given as the source filed them. The rule behind the calls is not given here.

Sequence of Hydroxycarboxylic acid receptor 3 (Homo sapiens) (P49019 whole entry): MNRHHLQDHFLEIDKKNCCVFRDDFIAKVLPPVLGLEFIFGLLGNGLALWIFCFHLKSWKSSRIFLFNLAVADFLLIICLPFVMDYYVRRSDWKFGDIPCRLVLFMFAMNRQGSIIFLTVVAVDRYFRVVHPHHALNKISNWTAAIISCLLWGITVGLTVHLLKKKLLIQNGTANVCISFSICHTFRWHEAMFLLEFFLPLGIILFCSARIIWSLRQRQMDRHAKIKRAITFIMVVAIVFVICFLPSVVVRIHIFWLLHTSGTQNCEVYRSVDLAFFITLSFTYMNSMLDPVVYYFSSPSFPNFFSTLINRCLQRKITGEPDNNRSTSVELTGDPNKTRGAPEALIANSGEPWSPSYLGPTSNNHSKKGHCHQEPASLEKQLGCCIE

The term ED50 denotes the midpoint of the dose-response relation. For orientation: IC50 means the point on the concentration scale where inhibition reaches its midpoint. As to `C1Cc2[nH]nc(-c3nn[nH]n3)c2C1`, in the data set with Mus musculus [1], the median effective dose (ED50) worked out at 3.1 mg/kg. Further, in data set [2], the result was inactive. In [3], the IC50 was found to be 0.87 µM.

Regarding `C/C=C/[C@@H]1[C@H]2Cc3c(-c4nnn[nH]4)n[nH]c3[C@@H]12`, the result in data set [2] was inactive.

Regarding `C1CC1[C@@H]1[C@H]2Cc3c(-c4nnn[nH]4)n[nH]c3[C@H]21`, in [2], the outcome was inactive.

As for `C1CCC2(C1)[C@@H]1c3[nH]nc(-c4nnn[nH]4)c3C[C@@H]12`, the outcome in data set [2] was inactive.

`C=CC[C@@H]1[C@H]2Cc3c(-c4nnn[nH]4)n[nH]c3[C@@H]12`: in data set [2], the outcome was inactive.

For the compound `C=CC[C@H]1[C@H]2Cc3c(-c4nnn[nH]4)n[nH]c3[C@H]21`, the result in data set [2] was inactive.

Take `C=C[C@@H]1[C@H]2Cc3c(-c4nnn[nH]4)n[nH]c3[C@@H]12`: the outcome in data set [2] was inactive.

With `C=C[C@H]1[C@H]2Cc3c(-c4nnn[nH]4)n[nH]c3[C@@H]12`, the outcome in data set [2] was inactive.

Take `CC(C)CC[C@@H]1C2Cc3c(-c4nnn[nH]4)n[nH]c3[C@H]21` (stereo not given in full): the result in data set [2] was inactive.

`CC(C)C[C@@H]1[C@H]2Cc3c(-c4nnn[nH]4)n[nH]c3[C@H]21`: in [4], the result was Active. The outcome in [2] was inactive.

On to `CC(C)C[C@H]1C2Cc3c(-c4nnn[nH]4)n[nH]c3[C@H]21` (stereo not given in full), for which the outcome in data set [2] was inactive.

Consider `CC1(C)[C@@H]2c3[nH]nc(-c4nnn[nH]4)c3C[C@@H]21`, for which the outcome in [2] was inactive.

Take `CCCCC[C@@H]1[C@H]2Cc3c(-c4nnn[nH]4)n[nH]c3[C@@H]12`: the result in data set [2] was inactive.

Take `CCCCC[C@H]1[C@H]2Cc3c(-c4nnn[nH]4)n[nH]c3[C@H]21`: the result in [2] was inactive.

As to `CCCC[C@@H]1[C@H]2Cc3c(-c4nnn[nH]4)n[nH]c3[C@@H]12`, in [4], the outcome was Active. Besides, in data set [2], the result was inactive.

For `CCC[C@@H]1[C@H]2Cc3c(-c4nnn[nH]4)n[nH]c3[C@@H]12`, in data set [4], the outcome was Active. Moreover, the result in [2] was inactive.

As for `CC[C@@H]1[C@H]2Cc3c(-c4nnn[nH]4)n[nH]c3[C@@H]12`, in [2], the result was inactive.

`COC[C@@H]1[C@H]2Cc3c(-c4nnn[nH]4)n[nH]c3[C@@H]12`: the outcome in data set [2] was inactive.

Turning to `C[C@@H]1[C@H]2Cc3c(-c4nnn[nH]4)n[nH]c3[C@@H]12`, the outcome in data set [2] was inactive.

With `C[C@H]1[C@H]2Cc3c(-c4nnn[nH]4)n[nH]c3[C@@H]12`, in [2], the result was inactive.

As for `C1c2c(-c3nnn[nH]3)n[nH]c2C2CC12` (racemic), the result in [2] was inactive.

For the compound `C1c2c(-c3nnn[nH]3)n[nH]c2[C@H]2C[C@@H]12` (stereo in doubt; (+)17a), in the data set listed under Mus musculus [5], the result was Active. Besides, the result (in the data set filed under Mus musculus [6]; in data set [2]; in the data set on Mus musculus [7]) was inactive.

One may read the Cmax as the maximum level reached in the sampled fluid or tissue. As usually defined, the half-life is how long it takes for the measured level to halve. The bioavailability is the share of a dose that reaches the circulation, judged against a reference dose that is usually intravenous. As to `C1c2c(-c3nnn[nH]3)n[nH]c2[C@H]2C[C@@H]12` (stereo in doubt; (+)17a) [3-(1H-TETRAZOL-5-YL)-4,4A,5,5A-TETRAHYDRO-1H-CYCLOPROPA[4,5]CYCLOPENTA[1,2-C]PYRAZOLE (STRUCTURAL MIX)], the clearance in [8] stood at 61.6 mL/min/kg; in data set [12], 13.9 mL/min/kg; in data set [13], 12.4 mL/min/kg; in [20], 25.5 mL/min/kg. The Cmax in data set [9] was found to be 4.9 µM; in [11], 36.9 µM; in data set [23], 11.7 µM; in [26], 2 µM. Besides, the half-life in data set [10] is 1.9 h; in data set [19], 1.9 h; in [21], 2.4 h; in data set [27] it was 7.3 h. In addition, the ED50 in the data set with Mus musculus [1] amounted to 0.52 mg/kg. Moreover, the bioavailability in data set [14] was greater than 100%; in [15], greater than 100%; in data set [17] it was 37%; in [18] it was 97%. For the same compound, the Vd in [16] was 3.4 L/kg; in data set [22] it was 0.53 L/kg; in [24], 0.96 L/kg; in data set [25] it was 0.34 L/kg. Also, in [3], the IC50 is 0.09 µM.

As to `C1c2c(-c3nnn[nH]3)n[nH]c2[C@H]2C[C@@H]12` (stereo in doubt; (-)17a), the outcome in [2] was inactive.

Turning to `O=C(O)c1cccnc1` [NIACIN], the result in [2] was inactive. Further, in data set [3], the half-inhibitory concentration (IC50) was 0.06 µM.

(Values after ChEMBL document CHEMBL1155464, “Potent tricyclic pyrazole tetrazole agonists of the nicotinic acid receptor (GPR109a)” (Bioorg Med Chem Lett, 2010).)
